This note sets out measurements from paper PMC6934184, “Selective DNA-PKcs inhibition extends the therapeutic index of localized radiotherapy and chemotherapy” (The Journal of Clinical Investigation, 2019).

For this assay, the target named is T1, PDK1 (Homo sapiens, UniProt O15530).
T1 construct: purchased Thermo Fisher Scientific (Life Technologies) SelectScreen
The assay can be described thus: SelectScreen Z'LYTE. The assay is classed as biochemical. The gist of the method: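 Percent values come from Thermo SelectScreen profiling of NU5455, combining activity and binding assays. CSF1R was run in Z'LYTE format at Km app ATP, and CAMK1 in Adapta format with ATP listed at 10.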

T1 sequence (O15530 whole entry): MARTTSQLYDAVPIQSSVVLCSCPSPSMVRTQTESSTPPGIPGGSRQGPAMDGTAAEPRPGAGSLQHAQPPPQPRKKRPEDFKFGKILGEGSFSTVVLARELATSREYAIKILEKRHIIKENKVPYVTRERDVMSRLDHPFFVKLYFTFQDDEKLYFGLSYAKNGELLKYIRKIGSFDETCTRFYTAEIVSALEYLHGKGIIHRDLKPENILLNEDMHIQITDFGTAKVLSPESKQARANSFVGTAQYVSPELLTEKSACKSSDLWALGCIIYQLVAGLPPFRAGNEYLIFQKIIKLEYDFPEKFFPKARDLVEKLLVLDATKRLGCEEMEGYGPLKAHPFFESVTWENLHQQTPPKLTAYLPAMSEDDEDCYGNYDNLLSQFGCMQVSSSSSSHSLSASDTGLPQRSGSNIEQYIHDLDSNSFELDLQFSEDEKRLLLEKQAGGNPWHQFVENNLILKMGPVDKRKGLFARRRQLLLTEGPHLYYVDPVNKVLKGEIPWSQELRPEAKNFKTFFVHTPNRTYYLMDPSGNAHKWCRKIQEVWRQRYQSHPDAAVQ

`CN(C(=O)CN1CCOCC1)c1ccc2sc3c(-c4cccc5c(=O)cc(N6CC7CCC(C6)O7)oc45)cccc3c2c1` [NU5455]: the inhibition (commonly the drop in the measured response relative to a control, in per cent) at 1 µM was -7.3%.
